{"source": "patent US6103733A", "about": "“Method for increasing HDL cholesterol levels using heteroaromatic phenylmethanes” (priority 1998, dated 2000)", "key": {"HDL-cholesterol [1]": {"system": "HDL-cholesterol", "assay": "Serum HDL-cholesterol level after feeding of the compound over 8 days", "format": "in vivo", "details": "feeding over 8 days, rats; in words", "description": "FIG. 2 represents a fold increase of HDL-cholesterol per compound;\nWe have invented a family of related compounds which cause a significant pharmacological elevation of serum high density lipoprotein (HDL-cholesterol) concentration from 20% to greater than 200%. […] The effect on HDL cholesterol was paralleled by an elevation in the level of apoprotein A1 (a protein component of HDL) and by elevation of apo A1 messenger RNA in treated animals.\nThe effect of CYP3A inducers on levels of HDL-cholesterol was determined by administration of the compound by feeding over 8 days followed by sacrifice of the animal and determination of HDL-cholesterol levels. The effects of benzylimidazole (IV), clotrimazole, the five high magnitude CYP3A inducers and four compounds showing intermediate CYP3A inducing activity were evaluated. […] The significant linear correlation between the increase in HDL-cholesterol and the increase in ethosuximide clearance is shown in FIG. 3, and supports the belief that the activities are related."}, "[2]": {"assay": "Liver/body weight ratio after administration over several days", "format": "in vivo", "details": "rats, indirect sign of increased cytochrome P450 content", "description": "(§1) A correlation between induction of CYP3A and an increase in serum HDL-cholesterol was supported by our early experiments in which selective CYP3A inducers (Clotrimazole, dexamethasone) were administered to rats over a period of several days, and the effect on liver/body weight ratios and on HDL-cholesterol/total cholesterol ratios determined. […] A positive relationship between cytochrome P450 induction and improvement of serum lipid levels was also found."}, "HDL2": {"system": "HDL2", "assay": "HDL2/total cholesterol ratio after administration over several days", "format": "in vivo", "details": "pretreated rats; in words", "description": "as §1"}, "CYP3A [3]": {"system": "CYP3A", "details": "rats; cited from earlier work"}, "CYP3A [4]": {"system": "CYP3A", "details": "human hepatocytes; cited from earlier work"}, "CYP3A [5]": {"system": "CYP3A", "assay": "CYP3A induction measured as increase in rate of ethosuximide clearance after 8-day pretreatment", "format": "in vivo, rats", "details": "for CYP3A activity induced compared with clotrimazole (Compound (III)): measured by ethosuximide clearance, in words; for increase in ethosuximide clearance: 8-day pretreatment, rats", "description": "FIG. 1 represents a fold increase in ethosuxinide clearances following an 8-day pretreatment schedule of the azoles;\nUsing clotrimazole (Compound (III)) as a lead compound, the effect of structure on the ability of a compound to induce CYP3A activity was determined, as measured by the test compound's ability to increase the rate of ethosuximide clearance. Over 40 structural modifications of clotrimazole were tested and significant differences in the ability to induce CYP3A activity was observed.\nAnalysis of the effect of substitution on the ability of a compound to induce CYP3A activity enables us to propose requirements for the induction in vivo. First, a heteroaromatic nucleus containing basic nitrogen must be present. Significant activity (i.e. >2 fold increase in ethosuximide clearance) is achieved only using substituted imidazoles, 2-methylimidazole (XIV), or in one case, pyridine (XVI). […] A variety of substituents were introduced into a single aryl ring of triphenylmethylimidazole. Most of the monosubstituted 1-triphenylmethylimidazoles produced inducing activity lower than that measured for the unsubstituted member of the series, regardless of the nature of the substituent. High magnitude CYP3A induction (i.e. >3-fold increase in ethosuximide clearance was found in only four substituted triphenylmethyl imidazoles: (XXXI)(meta-chloro). (XXXIII)(para chloro), (XXXVIII)(metafluoro)."}, "HDL-cholesterol [6]": {"system": "HDL-cholesterol", "details": "epileptic subjects vs matched patients without epilepsy; phenobarbital and/or phenytoin; cited from earlier work"}, "HDL cholesterol": {"system": "HDL cholesterol", "details": "prospective experiments; cited from earlier work"}, "HDL-cholesterol [7]": {"system": "HDL-cholesterol", "details": "rats; cited from earlier work"}, "apoA1": {"system": "apoA1", "details": "rats; cited from earlier work"}, "cytochromes P450": {"system": "cytochromes P450", "details": "cited from earlier work"}}, "note": "Read-outs that look alike come from different tables or passages of the source.", "data": [{"smiles": "Clc1ccccc1C(c1ccccc1)(c1ccccc1)n1ccnc1", "note": "[III]", "values": [{"measurement": "effect on HDL-cholesterol", "setting": "HDL-cholesterol [1]", "value": "significant effect on HDL-cholesterol"}, {"measurement": "liver/body weight ratio", "setting": "[2]", "value": "markedly increased liver/body weight ratios"}, {"measurement": "HDL2/total cholesterol ratio", "setting": "HDL2", "value": "noteworthy improvement in HDL2/total cholesterol ratios"}, {"measurement": "inducer of CYP3A", "setting": "CYP3A [3]", "value": "relatively selective inducer"}, {"measurement": "inducer of CYP3A", "setting": "CYP3A [4]", "value": "relatively selective inducer"}]}, {"smiles": "c1ccc(C(c2ccccc2)(c2ccccc2)n2ccnc2)cc1", "note": "[V, 1-triphenylmethylimidazole]", "values": [{"measurement": "CYP3A activity induced compared with clotrimazole (Compound (III))", "setting": "CYP3A [5]", "value": "significantly more CYP3A activity than did the lead compound"}]}, {"smiles": "c1ccc(C(c2ccccc2)n2ccnc2)cc1", "note": "[XIII, 1-diphenylmethylimidazole]", "values": [{"measurement": "CYP3A inducing activity", "setting": "CYP3A [5]; structure-activity statement in words, ethosuximide clearance", "value": "progressively lost"}]}, {"smiles": "Cc1nccn1C(c1ccccc1)(c1ccccc1)c1ccccc1", "note": "[XIV]", "values": [{"measurement": "increase in ethosuximide clearance", "setting": "CYP3A [5]", "value": "> 2", "unit": "fold"}]}, {"smiles": "c1ccc(Cc2ccncc2)cc1", "note": "[XVI]", "values": [{"measurement": "increase in ethosuximide clearance", "setting": "CYP3A [5]", "value": "> 2", "unit": "fold"}]}, {"smiles": "Clc1ccc(C(c2ccccc2)(c2ccccc2)n2ccnc2)cc1", "note": "[XXXIII]", "values": [{"measurement": "increase in ethosuximide clearance", "setting": "CYP3A [5]", "value": "> 3", "unit": "fold"}, {"measurement": "CYP3A activity induced compared with clotrimazole (Compound (III))", "setting": "CYP3A [5]", "value": "significantly more CYP3A activity than did the lead compound"}]}, {"smiles": "Fc1ccc(C(c2ccccc2)(c2ccccc2)n2ccnc2)cc1", "note": "[XXXIX]", "values": [{"measurement": "CYP3A activity induced compared with clotrimazole (Compound (III))", "setting": "CYP3A [5]", "value": "significantly more CYP3A activity than did the lead compound"}]}, {"smiles": "Clc1cccc(C(c2ccccc2)(c2ccccc2)n2ccnc2)c1", "note": "[XXXI]", "values": [{"measurement": "increase in ethosuximide clearance", "setting": "CYP3A [5]", "value": "> 3", "unit": "fold"}, {"measurement": "CYP3A activity induced compared with clotrimazole (Compound (III))", "setting": "CYP3A [5]", "value": "significantly more CYP3A activity than did the lead compound"}]}, {"smiles": "Fc1cccc(C(c2ccccc2)(c2ccccc2)n2ccnc2)c1", "note": "[XXXVIII]", "values": [{"measurement": "increase in ethosuximide clearance", "setting": "CYP3A [5]", "value": "> 3", "unit": "fold"}, {"measurement": "CYP3A activity induced compared with clotrimazole (Compound (III))", "setting": "CYP3A [5]", "value": "significantly more CYP3A activity than did the lead compound"}]}, {"smiles": "C[C@@H]1C[C@H]2[C@@H]3CCC4=CC(=O)C=C[C@]4(C)[C@@]3(F)[C@@H](O)C[C@]2(C)[C@@]1(O)C(=O)CO", "note": "[dexamethasone]", "values": [{"measurement": "liver/body weight ratio", "setting": "[2]", "value": "markedly increased liver/body weight ratios"}, {"measurement": "HDL2/total cholesterol ratio", "setting": "HDL2", "value": "noteworthy improvement in HDL2/total cholesterol ratios"}]}, {"smiles": "CCC1(c2ccccc2)C(=O)NC(=O)NC1=O", "note": "[phenobarbital]", "values": [{"measurement": "levels of HDL-cholesterol", "setting": "HDL-cholesterol [6]", "value": "higher levels of HDL-cholesterol"}, {"measurement": "total serum HDL cholesterol/total cholesterol ratio", "setting": "HDL cholesterol", "value": "increases in total serum HDL cholesterol/total cholesterol ratios"}, {"measurement": "HDL-cholesterol", "setting": "HDL-cholesterol [7]", "value": "increase HDL-cholesterol"}, {"measurement": "apoA1", "setting": "apoA1", "value": "increase HDL-cholesterol and apoA1 in rats"}, {"measurement": "inducer of the cytochromes P450", "setting": "cytochromes P450", "value": "known to be an inducer of the cytochromes P450"}]}, {"smiles": "O=C1NC(=O)C(c2ccccc2)(c2ccccc2)N1", "note": "[phenytoin]", "values": [{"measurement": "levels of HDL-cholesterol", "setting": "HDL-cholesterol [6]", "value": "higher levels of HDL-cholesterol"}]}]}
